SMILES strings stand for the structures. Counter-ions that a name gives are not always drawn.

By Kd is commonly meant the concentration at which binding is half-saturated. Low values mean tighter binding, high ones weaker binding.

The target of experiment [1] is human TYK2 (JH2domain-pseudokinase) (Homo sapiens (Human), UniProt P29597). Put plainly: TYK2 JH2 domain binding assay (KINOMEscan). The procedure: Binding constants for the compounds described herein against the JH2 domain were determined by the following protocol for a KINOMEscan® assay (DiscoveRx). A fusion protein of a partial length construct of human TYK2 (JH2domain-pseudokinase) (amino acids G556 to D888 based on reference sequence NP_003322.3) and the DNA binding domain of NFkB was expressed in transiently transfected HEK293 cells. From these HEK 293 cells, extracts were prepared in M-PER extraction buffer (Pierce) in the presence of Protease Inhibitor Cocktail Complete (Roche) and Phosphatase Inhibitor Cocktail Set II (Merck) per manufacturers' instructions. The TYK2 (JH2domain-pseudokinase) fusion protein was labeled with a chimeric double-stranded DNA tag containing the NFkB binding site fused to an amplicon for qPCR readout, which was added directly to the expression extract (the final concentration of DNA-tag in the binding reaction is 0.1 nM).
Chain of human TYK2 (JH2domain-pseudokinase) (P29597 556-888): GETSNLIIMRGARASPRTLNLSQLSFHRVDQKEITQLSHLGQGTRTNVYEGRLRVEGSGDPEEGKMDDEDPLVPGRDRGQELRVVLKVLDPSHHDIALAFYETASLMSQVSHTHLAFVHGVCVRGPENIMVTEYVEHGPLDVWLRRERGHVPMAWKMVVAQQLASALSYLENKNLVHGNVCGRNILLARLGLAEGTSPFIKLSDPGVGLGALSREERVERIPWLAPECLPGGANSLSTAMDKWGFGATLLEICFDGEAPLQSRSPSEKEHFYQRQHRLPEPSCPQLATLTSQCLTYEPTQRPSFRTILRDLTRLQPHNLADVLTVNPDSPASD
Streptavidin-coated magnetic beads (Dynal M280) were treated with a biotinylated small molecule ligand for 30 minutes at room temperature to generate affinity resins the binding assays. The liganded beads were blocked with excess biotin and washed with blocking buffer (SeaBlock (Pierce), 1% BSA, 0.05% Tween 20, 1 mM DTT) to remove unbound ligand and to reduce nonspecific binding.
The binding reaction was assembled by combining 16 μl of DNA-tagged kinase extract, 3.8 μl liganded affinity beads, and 0.18 μl test compound (PBS/0.05% Tween 20/10 mM DTT/0.1% BSA/2 μg/ml sonicated salmon sperm DNA)]. Extracts were used directly in binding assays without any enzyme purification steps at a ≥10,000-fold overall stock dilution (final DNA-tagged enzyme concentration <0.1 nM). Extracts were loaded with DNA-tag and diluted into the binding reaction in a two-step process. First extracts were diluted 1:100 in 1×binding buffer (PBS/0.05% Tween 20/10 mM DTT/0.1% BSA/2 […] sonicated salmon sperm DNA) containing 10 nM DNA-tag. This dilution was allowed to equilibrate at room temperature for 15 minutes and then subsequently diluted 1:100 in 1× binding buffer. Test compounds were prepared as 111× stocks in 100% DMSO. Kds were determined using an 11-point 3-fold compound dilution series with three DMSO control points. All compounds for Kd measurements were distributed by acoustic transfer (non-contact dispensing) in 100% DMSO. The compounds were then diluted directly into the assays such that the final concentration of DMSO was 0.9%. All reactions were performed in polypropylene 384-well plates. Each was a final volume of 0.02 mL. Assays were incubated with shaking for 1 hour at room temperature. Then the beads were pelleted and washed with wash buffer (1×PBS, 0.05% Tween 20) to remove displaced kinase and test compound. The washed based were resuspended in elution buffer (1 λPBS, 0.05% Tween […] non-biotinylated affinity ligand) and incubated at room temperature with shaking for 30 minutes. The kinase concentration in the eluates was measured by qPCR. qPCR reactions were assembled by adding 2.5 μL of kinase eluate to 7.5 μL of qPCR master mix containing […] amplicon primers and 0.15 μM amplicon probe. The qPCR protocol consisted of a 10 minute hot start at 95° C., followed by 35 cycles of 95° C. for 15 seconds, 60° C. for 1 minute.
Test compounds were prepared as 111× stocks in 100% DMSO. Kds were determined using an 11-point 3-fold compound dilution series with three DMSO control points. All compounds for Kd measurements were distributed by acoustic transfer (non-contact dispensing) in 100% DMSO. The compounds were then diluted directly into the assays such that the final concentration of DMSO was 0.9%. The Kds were determined using a compound top concentration of 30,000 nM. Kd measurements were performed in duplicate.
Binding constants (Kds) were calculated with a standard dose-response curve using the Hill equation: […]
The Hill Slope was set to −1. […]

The target of the next experiment is TYK2 JH1 (Homo sapiens (Human), UniProt P29597). Put plainly: TYK2 JH1 binding (Kd, Table 2). To be noted: JH1 domain.
Chain of TYK2 JH1 (P29597 897-1176): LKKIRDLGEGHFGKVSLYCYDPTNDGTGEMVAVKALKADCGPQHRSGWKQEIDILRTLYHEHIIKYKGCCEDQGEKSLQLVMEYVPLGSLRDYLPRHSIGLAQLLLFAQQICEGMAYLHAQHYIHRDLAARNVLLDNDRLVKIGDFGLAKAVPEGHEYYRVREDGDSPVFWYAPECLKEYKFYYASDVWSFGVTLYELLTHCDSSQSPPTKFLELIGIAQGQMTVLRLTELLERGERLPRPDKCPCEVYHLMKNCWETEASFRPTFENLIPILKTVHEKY
A further experiment concerns the target JAK1 JH2 (Homo sapiens (Human), UniProt P23458). As to the kind of experiment: JAK1 JH2 binding (Kd, Table 2). To be noted: JH2 domain.

Chain of JAK1 JH2 (P23458 583-855): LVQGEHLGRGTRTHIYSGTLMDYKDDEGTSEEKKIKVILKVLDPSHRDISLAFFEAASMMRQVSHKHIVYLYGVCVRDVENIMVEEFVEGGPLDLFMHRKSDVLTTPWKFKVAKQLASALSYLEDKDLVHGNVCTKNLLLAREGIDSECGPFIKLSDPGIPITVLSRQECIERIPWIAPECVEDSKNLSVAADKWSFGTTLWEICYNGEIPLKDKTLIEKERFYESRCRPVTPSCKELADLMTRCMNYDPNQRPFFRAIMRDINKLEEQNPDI

`CNc1nc2nc3c(nn(C)c13)C(=O)N[C@H](C)COCc1cc(c3nnn(C)c3c1)N2` [Compound 65] had a Kd in experiment [1] of under 0.01 µM.

`CNc1cc2nn3c(cnc13)C(=O)N[C@H](C)CNc1ccnc3ccc(cc13)N2` [Compound 61, (12R)-12-methyl-24-(methylamino)-2,4,5,7,11,14,18-heptaazapentacyclo[13.6.2.2^{3,6}0.^{5,9}0.^{19,23}]pentacosa-1(21),3,6,8,15,17,19,22,24-nonaen-10-one]: the Kd in experiment [1] was under 0.01 µM.

In experiment [1], `CNc1cc2nn3c(cnc13)C(=O)N[C@H](C)CNc1ncnc3ccc(cc13)N2` [Compound 66] registered a Kd of under 0.01 µM.

Consider `CNc1cc2nc3c(cnn13)C(=O)N[C@H](C)[C@H](C)OCc1cc(c3nnn(C)c3c1)N2` [Compound 38], for which the Kd in experiment [1] was under 0.01 µM; at TYK2 JH1, at least 30 µM; at JAK1 JH2 it was 1 to 10 µM.

`C[C@@H]1COCc2cc(c3nnn(C)c3c2)Nc2cn3c(cnc3cn2)C(=O)N1` [Compound 77] had a Kd in experiment [1] of 1 to 10 µM.

As to `CNc1cc2nc3c(cnn13)C(=O)N[C@H](C)COCc1cc(c3nn(C)cc3c1)N2` [Compound 35], the Kd in experiment [1] was under 0.01 µM; at TYK2 JH1, at least 30 µM; on JAK1 JH2, 0.01 to 1 µM.

`CNc1cc2nn3c(cnc13)C(=O)N[C@H](C)COCc1cc(cc3cn[nH]c13)N2` [Compound 98]: the Kd in experiment [1] is under 0.01 µM; at TYK2 JH1, 0.01 to 1 µM; on JAK1 JH2, 0.01 to 1 µM.

`CNc1cc2nn3c(cnc13)C(=O)N[C@H](C)COCc1cc(c3ncn(C)c3c1)N2` [Compound 10, (7R,E)-3′,7-Dimethyl-1^8-(methylamino)-3^1H-5-oxa-2,8-diaza-1(6,3)-imidazo[1,2-b]pyrida-zina-3(4,6)-benzo[d]imidazolacyclononaphan-9-one]: the Kd in experiment [1] was under 0.01 µM; at TYK2 JH1, 1 to 10 µM; on JAK1 JH2, 1 to 10 µM.

Consider `CNc1cc2nc3c(cnn13)C(=O)N[C@H](C)COCc1cc(c3cn(C)nc3c1)N2` [Compound 53], for which the results for the Kd (in experiment [1]; at TYK2 JH1; at JAK1 JH2) were under 0.01 µM, 10 to 30 µM and 0.01 to 1 µM, respectively.

Regarding `CNc1cc2nc3c(cnn13)C(=O)N[C@H](C)COCc1cc(c3ncn(C)c3c1)N2` [Compound 11, (R,1^3E,1^4E)-3′,7-Dimethyl-17-(methylamino)-3^1H-5-oxa-2,8-diaza-1(5,3)-pyrazolo[1,5-a]pyrimidina-3(4,6)-benzo[d]imidazolacyclononaphan-9-one], the Kd in experiment [1] is under 0.01 µM; on TYK2 JH1, 10 to 30 µM; at JAK1 JH2 it was 1 to 10 µM.

In the case of `CNc1cc2nn3c(cnc13)C(=O)N[C@H](C)COc1cncc3ccc(cc13)N2` [Compound 68], in experiment [1], the Kd was under 0.01 µM.

On to `CNc1cc2nn3c(cnc13)C(=O)N[C@H](C)CSCc1cc(c3nnn(C)c3c1)N2` [Compound 55], for which the Kd in experiment [1] is under 0.01 µM.

In the case of `CNc1cc2nc3c(cnn13)C(=O)N[C@H](C)[C@@H](C)OCc1cc(c3c(c1)nnn3C)N2` [Compound 94], the Kd in experiment [1] is under 0.01 µM; at TYK2 JH1 it was at least 30 µM; on JAK1 JH2, 10 to 30 µM.

`CNc1cc2nn3c(cnc13)C(=O)N[C@H](C)C[S+]([O-])Cc1cc(c3nnn(C)c3c1)N2` (stereo partly drawn) [Compound 58] showed a dissociation constant Kd in experiment [1] of under 0.01 µM.

With `CNc1cc2nn3c(cnc13)C(=O)N[C@H](C)COCc1cc(c3c(cnn3C)c1)N2` [Compound 14, (7R,E)-3′,7-Dimethyl-1^8-(methylamino)-3^1H-5-oxa-2,8-diaza-1(6,3)-imidazo[1,2-b]pyridazina-3(7,5)-indazolacyclononaphan-9-one], the Kd in experiment [1] was under 0.01 µM; on TYK2 JH1 it was 10 to 30 µM; at JAK1 JH2 it was 10 to 30 µM.

As to `CNc1cc2nc3c(cnn13)C(=O)N[C@H](C)COCc1cc(c3cnn(C)c3c1)N2` [Compound 52], the Kd was under 0.01 µM in experiment [1], 10 to 30 µM at TYK2 JH1 and 1 to 10 µM on JAK1 JH2.

With `Cc1nc2ccc3nn2c1C(=O)N[C@H](C)COCc1cc(c2nnn(C)c2c1)N3` [Compound 67], the Kd in experiment [1] was under 0.01 µM.

Consider `CNc1cc2nc3c(cnn13)C(=O)N[C@H](CO)[C@@H](C)OCc1cc(c3nnn(C)c3c1)N2` [Compound 15], for which the Kd in experiment [1] is under 0.01 µM; on TYK2 JH1, at least 30 µM; at JAK1 JH2, 1 to 10 µM.

Turning to `CNc1cc2nn3c(cnc13)C(=O)N[C@H](C)COCc1cc(c3nn(C)cc3c1)N2` [Compound 36], the values for the Kd (in experiment [1]; at TYK2 JH1; on JAK1 JH2) were under 0.01 µM, 1 to 10 µM and 0.01 to 1 µM, respectively.

`CNc1cc2nn3c(cnc13)C(=O)N[C@H](C)COc1cccc3ccc(nc13)N2` [Compound 69] displayed a Kd in experiment [1] of under 0.01 µM.

As to `CNc1cc2nn3c(cnc13)C(=O)N[C@H](C)C(C)OCc1cc(c3nnn(C)c3c1)N2` (stereo partly drawn) [Compound 90], the figures for the Kd (in experiment [1]; at TYK2 JH1; at JAK1 JH2) were under 0.01 µM, at least 30 µM and 0.01 to 1 µM, respectively.

The compound `C[C@@H]1COCc2cc(c3nnn(C)c3c2)Nc2ccc3ncc(n3c2)C(=O)N1` [Compound 71] registered a Kd in experiment [1] of 0.01 to 1 µM.

As to `Cc1nc2ccc3cn2c1C(=O)N[C@H](C)COCc1cc(c2nnn(C)c2c1)N3` [Compound 75], the Kd in experiment [1] is 0.01 to 1 µM.

With `CNc1cc2nc3c(cnn13)C(=O)N[C@H](C)[C@H](C)OCc1cc(c3c(c1)nnn3C)N2` [Compound 93], the dissociation constant Kd in experiment [1] was under 0.01 µM; at TYK2 JH1 it was at least 30 µM; at JAK1 JH2, 1 to 10 µM.

Regarding `CNc1nc2nc3c(n[nH]c13)C(=O)N[C@H](C)COCc1cc(c3nnn(C)c3c1)N2` [Compound 59], the Kd in experiment [1] was under 0.01 µM.

Regarding `CNc1cc2nc3c(cnn13)C(=O)N[C@H](CO)COCc1cc(c3nnn(C)c3c1)N2` [Compound 91], the results for the Kd (in experiment [1]; at TYK2 JH1; on JAK1 JH2) were under 0.01 µM, 0.01 to 1 µM and 1 to 10 µM, respectively.

The compound `CNc1cc2nn3c(cnc13)C(=O)N[C@H](C)COc1nccc3ccc(cc13)N2` [Compound 62] showed a Kd in experiment [1] of under 0.01 µM.

Turning to `CNc1cc2nn3c(cnc13)C(=O)N[C@H](C)COc1cccc3ncc(cc13)N2` [Compound 64], in experiment [1], the Kd is under 0.01 µM.

`CNc1nc2nc3c(n(C)nc13)C(=O)N[C@H](C)COCc1cc(c3nnn(C)c3c1)N2` [Compound 70] returned a dissociation constant (Kd) in experiment [1] of under 0.01 µM.

`C[C@@H]1COCc2cc(c3nnn(C)c3c2)Nc2ccn3ncc(c3n2)C(=O)N1` [Compound 54] yielded a Kd in experiment [1] of under 0.01 µM.

The compound `CNc1cc2nn3c(cnc13)C(=O)N[C@H](C)COc1ccnc3cnc(cc13)N2` [Compound 63, (12R)-12-methyl-24-(methylamino)-14-oxa-2,4,5,7,11,18,21-heptaazapentacyclo[13.6.2.2^(3,6.0^(5,9.0^(19,23]pentacosa-1(22),3,6,8,15,17,19(23),20,24-nonaen-10-one hydrochloride] registered a Kd in experiment [1] of under 0.01 µM.

As for `CNc1cc2nn3c(cnc13)C(=O)N[C@H](C)COCc1cc(cn3ccnc13)N2` [Compound 99, (14R)-14-methyl-21-(methylamino)-12-oxa-2,5,8,15,19,23,24-heptaazapentacyclo[15.5.2.1^(3,10.0^(5,9.0^(20,24]pentacosa-1(23),3,6,8,10(25),17,19,21-octaen-16-one hydrochloride], in experiment [1], the Kd is under 0.01 µM.

In turn, `CNc1cc2nn3c(cnc13)C(=O)N[C@H](C)CS(=O)(=O)Cc1cc(c3nnn(C)c3c1)N2` [Compound 57] displayed a dissociation constant Kd in experiment [1] of under 0.01 µM.

`CNc1nc2cn3c(cnc13)C(=O)N[C@H](C)COCc1cc(c3nnn(C)c3c1)N2` [Compound 76] displayed a Kd in experiment [1] of 1 to 10 µM.

On to `CNc1cc2nn3c(cnc13)C(=O)N[C@H](C)COc1ncnc3cc(OC)c(cc13)N2` [Compound 56], for which the Kd in experiment [1] was under 0.01 µM.
